According to patent US20070238700A1, “N-PHENYL-1,1,1-TRIFLUOROMETHANESULFONAMIDE HYDRAZONE DERIVATIVE COMPOUNDS AND THEIR USAGE IN CONTROLLING PARASITES” (priority 2006, published 2007):
Where two headings read alike, the source gives them in different places.

How the values were obtained:
[1] = system: Ctenocephalides felis; assay: Ctenocephalides felis adulticide assay: C. felis dose response (LC50)
Text: c) Ctenocephalides felis Adulticide Assay: C. felis Dose Response
The purpose of this example was to determine the LC50 when cat fleas were contacted with a glass surface treated with sample compounds or formulations prepared as described above. […] The test species was the cat flea (Ctenocephalides felis). The strain used was obtained from external suppliers as pupae and held in the laboratory under testing conditions until the adults had emerged. Fifteen (15) fleas were used in a minimum of four replicates for each dose level (total of 60 fleas per dose level). The insects were selected to be in the adult life stage, aged between 3 and 7 days post emergence.
The compounds to be tested were dissolved in acetone just prior to testing. Samples of compounds were stored in a refrigerator (5±1° C.) unless otherwise specified. During the mortality testing, the temperature was maintained at 25±1° C. Humidity was maintained at 75±5%. The base (area=159 mm^2) of a 100 mL glass Erlenmeyer (conical) flask provided the treatment surface. Flasks were pretreated with Coatasil™ glass treatment to maximise bio-availability of test compounds by preventing them from binding to the glass surface.
The base of the 100 mL Erlenmeyer flask was treated with 0.5 mL of test sample in acetone and gently swirled. This volume was sufficient to cover the base of the flask. Flasks were left to dry for 24 hours before flea exposure. Adult cat fleas were lightly anaesthetised by cooling and then placed into a sorting chamber, which allowed fleas to revive and jump into the Erlenmeyer flasks. Fifteen (15) adult cat fleas were collected in each flask. The top of the flasks were then covered in Parafilm™ and small holes made to allow gas exchange. A 0.5 mL volume of acetone was applied to the base of an Erlenmeyer flask and the testing proceeded in the same manner described above. Cat fleas in the treatment containers were held under testing conditions for 24 hours. Mortality resulting from the treatments was recorded at 8 and 24 hours.

[2] = system: Rhipicephalus sanguineus; assay: Rapid screening protocol for topical application on brown dog ticks (% mortality)
Method: d) Rapid Screening Protocol for Topical Application on Brown Dog Ticks (Rhipicephalus sanguineus)
The aim of the test was to determine the presence of significant acaricidal activity in sample compounds or formulations when applied topically on brown dog ticks. A tick was defined as dead if it gave no apparent response when touched lightly and observed for 1 minute. To assess the experimental compound for acaricidal activity, a single dose level was chosen based on known results from previous experiments with a commercially available active reference compound. Both permethrin and fipronil were employed as reference compounds. The insect species tested was the Brown Dog Tick (Rhipicephalus sanguineus). Mixed sex adult ticks were used for tests. The strain used was cultured by von Berky Veterinary Services, Woody Point, QLD, AU and supplied as unfed adult ticks (mixed sex). Ticks were maintained in controlled conditions (temp. 18°±2° C., humidity 75±5% RH).
Test compounds (formulations or active ingredients) were stored in a refrigerator (5±1° C.) unless otherwise specified. Temperature was maintained at 25±1° C. and the humidity was ambient. The screening dose chosen was higher than that known to kill 90% of insects (LD90) using the reference compound. In the case of topical application of active compounds on adult ticks, the reference compound was fipronil and the dose chosen was 10 μg of active per tick (=10 μg of fipronil/1 μl of acetone). Ticks were each treated on the abdomen with 1 μL of a single dose level of test sample in acetone; ten ticks were treated with solvent only (acetone) in each test. Tests were replicated 4 times (total of 40 ticks treated). Ticks were held in recovery containers maintained under appropriate rearing conditions for 24 hours. Mortality resulting from the treatments was recorded at 24 hours. Pooled 24 hour mortality data were converted to percentages.

[3] = system: Rhipicephalus sanguineus; assay: Dose response protocol for topical application on brown dog ticks (LD50); conditions: 24 h mortality, probit analysis
Method: e) Dose response protocol for topical application on brown dog ticks (Rhipicephalus sanguineus): The test determines the level of insecticidal activity of sample compounds or formulations when applied topically on brown dog ticks. Sample compounds were stored prior to use in a freezer (−5±1° C.), unless otherwise specified.
• Mortality: A tick is defined as dead after it gives no apparent response when touched lightly or gently breathed upon, while observed for 30 seconds. • LD50 (Lethal Dose 50): The dose of a topically applied treatment at which 50% of the dog ticks are killed. • Reference compound: To assess an experimental compound for significant acaricidal activity a single dose level is chosen, which is based upon known results from previous experiments using a commercially available active i.e., a reference compound. The reference compound selected is one in common use, and one that has a similar mode of action against the Brown Dog Tick (i.e., the test species), • Recovery container: A recovery container consists of a 500 ml round plastic container measuring 115 mm diameter and 70 mm height, with a tight fitting lid that has 10 small (˜1 mm) holes inserted for air exchange. A 90 mm diameter piece of filter paper was placed on the bottom of the container and moistened with 1 mL of distilled water.
Adult, mixed sex, Brown Dog Ticks (Rhipicephalus sanguineus) were reared as follows: (i) cultured, (ii) transferred unfed, to a testing laboratory, and (iii) then maintained under controlled conditions (i.e., temp. 18°±2° C., humidity 75±5% RH). The ticks used were selected for vigor prior to testing, i.e., capable of actively walking and responsive to being touched or gently breathed upon.
During the testing, the temperature was maintained at 25±1° C. and the humidity was ambient. Seven dose levels (concentrations) of sample compound, in the form of serial dilutions in acetone, were derived from a pilot study and covered a range that produced very low to very high mortality. Groups of ten ticks were treated topically (on the abdomen) with 1 μL of a single dose level of the sample compound. Each test was replicated four times, i.e., employing a total of 40 ticks per dose level of each sample compound. As a control, ten ticks were treated with solvent only (acetone) for each test. Following the treatment, the ticks were held in recovery containers maintained under appropriate rearing conditions for 24 hours. Mortality resulting from the treatments was recorded at 24 hours. […] Press, London (1971).]

[4] = system: Ctenocephalides felis
In short: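 Adult cat fleas (3–7 days post-emergence), 15 per flask in ≥4 replicates, exposed to a dried acetone residue at 1.26 μg/cm^2 on a Coatasil-treated glass flask base. Held at 25±1° C, 75±5% humidity; mortality (immobile or unable to right) scored at 8, 24 and/or 48 h.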

| Compound | C. felis LC50 [1] | R. sanguineus Mortality (%) 24 h ([2]; data from laboratory 2) | R. sanguineus LD50 [3] | C. felis Mortality (%) 8 h [4] | C. felis Mortality (%) 24 h [4] | C. felis Mortality (%) 48 h [4] | R. sanguineus Mortality (%) 24 h ([2]; data from laboratory 1) | C. felis LC50 ([1]; data from laboratory 1) |
| --- | --- | --- | --- | --- | --- | --- | --- | --- |
| CC(=NN(C)c1cccc(C(F)(F)F)c1)c1cc(Cl)ccc1NS(=O)(=O)C(F)(F)F [Compound 203] | 1.30 ppm | 95% | 0.68 μg/tick | 11% | 98% | – | – | – |
| CCC(=NN1CCCCCC1)c1cc(Cl)ccc1NS(=O)(=O)C(F)(F)F [Compound 131] | – | 98% | – | 43% | 100% | – | – | – |
| CCOCN(c1ccc(Cl)cc1C(C)=NN(C)c1ccccc1)S(=O)(=O)C(F)(F)F [Compound 112] | – | 5% | – | 99% | 100% | – | – | – |
| C/C(=N\N(CCC#N)C(=O)C(C)C)c1cc(Cl)ccc1NS(=O)(=O)C(F)(F)F [Compound 223] | – | 100% | – | 45% | 100% | – | – | – |
| CC(=NN(C)c1ccc(Br)cc1)c1cc(Cl)ccc1NS(=O)(=O)C(F)(F)F [Compound 63] | 2.4 ppm | 100% | – | 100% | 100% | – | – | – |
| CC(=NN(C)C)c1ccccc1NS(=O)(=O)C(F)(F)F [Compound 124] | – | 88% | – | 59% | 94% | – | – | – |
| CC(=NN(c1ccc(C(F)(F)F)cc1)C(C)C)c1cc(Cl)ccc1NS(=O)(=O)C(F)(F)F [Compound 47] | – | 58% | – | 14% | 100% | – | – | – |
| CC(=NN(c1cccc(Cl)c1)C(C)C)c1cc(Cl)ccc1NS(=O)(=O)C(F)(F)F [Compound 50] | – | 68% | – | 61% | 100% | – | – | – |
| CC(=NN(C)c1ccc(C)cc1)c1cc(Cl)ccc1NS(=O)(=O)C(F)(F)F [Compound 75] | 1.4 ppm | 100% | – | 100% | 100% | – | – | – |
| CC(=NN(C)c1ccccc1)c1ccc(C(F)(F)F)cc1NS(=O)(=O)C(F)(F)F [Compound 120, N-[2-[1-(N′-methyl-N′-phenyl)hydrazono]-ethyl-5-trifluoromethylphenyl]-trifluoromethanesulfonamide] | – | 58% | – | 28% | 83% | – | – | – |
| CCCN(N=C(C)c1cc(Cl)ccc1NS(=O)(=O)C(F)(F)F)c1ccc(Cl)c(Cl)c1 [Compound 97] | – | 73% | – | 52% | 100% | – | – | – |
| CCN(N=C(C)c1cc(Cl)ccc1NS(=O)(=O)C(F)(F)F)c1ccccc1Cl [Compound 37] | – | 83% | – | – | 89% | 100% | – | – |
| CC(=NN(C)c1ccc(C(F)(F)F)cc1)c1cc(Cl)ccc1NS(=O)(=O)C(F)(F)F [Compound 65, N-[2-[1-(N′-methyl-(4-trifluoromethyl)phenyl)hydrazono]-ethyl-4-chlorophenyl]-trifluoromethanesulfonamide] | – | 100% | – | 100% | 100% | – | – | – |
| CCC(=NN(Cc1ccccc1)c1ccccc1)c1cc(Cl)ccc1NS(=O)(=O)C(F)(F)F [Compound 24] | – | – | – | 100% | 100% | – | 28^A % | – |
| CCCN(N=C(C)c1cc(Cl)ccc1NS(=O)(=O)C(F)(F)F)c1c(Cl)cccc1Cl [Compound 103] | – | 40% | – | 56% | 100% | – | – | – |
| CCCN(N=C(C)c1cc(Cl)ccc1NS(=O)(=O)C(F)(F)F)c1cc(Cl)cc(Cl)c1 [Compound 98] | – | 60% | – | 19% | 98% | – | – | – |
| CC(=NN(c1cccc(F)c1)C(C)C)c1cc(Cl)ccc1NS(=O)(=O)C(F)(F)F [Compound 77] | – | 73% | – | 91% | 100% | – | – | – |
| CC(=NN(c1cccc(Cl)c1Cl)C(C)C)c1cc(Cl)ccc1NS(=O)(=O)C(F)(F)F [Compound 66] | – | 48% | – | 18% | 100% | – | – | – |
| CCCN(N=C(C)c1cc(Cl)ccc1NS(=O)(=O)C(F)(F)F)c1ccc(F)cc1 [Compound 104] | – | 75% | – | 16% | 100% | – | – | – |
| CCCN(N=C(C)c1cc(Cl)ccc1NS(=O)(=O)C(F)(F)F)c1ccc(Br)cc1 [Compound 53] | – | 50% | – | 71% | 100% | – | – | – |
| CC(=NN(C)c1ccccc1)c1cc(Cl)ccc1NS(=O)(=O)C(F)(F)F [Compound 9] | – | 98% | – | – | 100^B % | – | 88% | 0.86 ppm |
| CC(=NN(c1ccccc1Cl)C(C)C)c1cc(Cl)ccc1NS(=O)(=O)C(F)(F)F [Compound 56] | – | 45% | – | 51% | 99% | – | – | – |
| CCN(N=C(C)c1cc(Cl)ccc1N(C)S(=O)(=O)C(F)(F)F)c1ccccc1F [Compound 44] | – | 3% | – | – | 3% | 22% | – | – |
| CC(=NN(C)c1ccccc1)c1cc(Cl)ccc1N(C)S(=O)(=O)C(F)(F)F [Compound 109, N-[2-[1-(N′-methyl-N′-phenyl)hydrazono]ethyl-4-chlorophenyl]-N-methyl-trifluoromethanesulfonamide] | – | 8% | – | 73% | 100% | – | – | – |
| CC(=NN(c1ccccc1)C(C)C)c1cc(Cl)ccc1NS(=O)(=O)C(F)(F)F [Compound 28] | – | 68% | – | – | 100% | 100% | – | – |
